Laboratory results published in article PMC9489722, “Identification and development of a subtype-selective allosteric AKT inhibitor suitable for clinical development” (Scientific Reports, 2022).
Where two headings read alike, the source gives them in different places.

How the values were obtained:
AKT1 [1] = biological target: T1, AKT1 (Homo sapiens, UniProt P31749); assay: AKT1 biochemical kinase assay (FP iMAP)
T1 construct: purchased Millipore
Method: Biochemical analysis was performed using kinases obtained from Millipore (AKT1, ∆AKT1, ∆AKT2, ∆AKT3) and Signal Chem (AKT2 and AKT3). […] (Molecular Devices) against the three isoforms of AKT and their PH domain null mutants. Compounds were dissolved in DMSO prior to screening at 14 point titration series in the range (50 µM–50 pM). Fluorescence polarisation was measured using a Biotek Synergy 4 Hybrid microplate reader. Percentage inhibition of kinase activity was calculated and IC50 values derived using non-linear regression on GraphPad Prism. Competition of ALM301 with ATP was determined using AKT1 under increasing ATP concentrations up to 1000 µM.

∆AKT1 = assay: PH domain null AKT1 biochemical kinase assay (FP iMAP)
Method: (§1) Biochemical analysis was performed using kinases obtained from Millipore (AKT1, ∆AKT1, ∆AKT2, ∆AKT3) and Signal Chem (AKT2 and AKT3). The specific activity of AKT 1,2 and 3 was determined to be 114 nmol/min/mg, 44 nmol/min/mg and 200 nmol/min/mg respectively as per activity assay protocol. ALM301 was profiled using the Fluorescent Polarisation (FP) iMAP Screening Express kit (Molecular Devices) using the FAM-Crosstide substrate [5FAM-[…]-OH] (Molecular Devices) against the three isoforms of AKT and their PH domain null mutants. Compounds were dissolved in DMSO prior to screening at 14 point titration series in the range (50 µM–50 pM). Fluorescence polarisation was measured using a Biotek Synergy 4 Hybrid microplate reader. Percentage inhibition of kinase activity was calculated and IC50 values derived using non-linear regression on GraphPad Prism. Competition of ALM301 with ATP was determined using AKT1 under increasing ATP concentrations up to 1000 µM.

∆AKT3 = assay: PH domain null AKT3 biochemical kinase assay (FP iMAP)
Method: as §1

[2] = In vitro microsomal stability, human; assay type: in vitro ADME; conditions: pH 7.4; human liver microsomes; read-out: human LM CLint
Method: Compounds (final concentration = 1 µM; final DMSO concentration = 0.1%) were incubated in 0.1 M phosphate buffer at pH 7.4 with liver microsomes (human, mouse, rat or dog; 0.5 mg of protein/mL) at 37 °C. Reactions were started by addition of NADPH in 0.1 M phosphate buffer pH 7.4 (final concentration 1 mM). Reactions were quenched by addition of ice-cold methanol and frozen. The supernatants were analysed by LC/MS/MS on a Waters Acquity I-Class coupled to a Waters Xevo TQD mass spectrometer. A Waters BEH C18 2.1 × 50 mm 1.7 µm column was used and mobile phases consisted of water and methanol containing 0.1% formic acid as modifier. Analysis was by multiple reaction monitoring and conditions were optimised for each test compound.

CYP 1A2 = CYP 1A2 (Homo sapiens, UniProt P05177); assay: CYP1A2 inhibition; assay type: in vitro ADME
CYP 2C9 = CYP 2C9 (Homo sapiens, UniProt P11712); assay: CYP2C9 inhibition; assay type: in vitro ADME
AKT1 [3] = biological target: T1, AKT1; assay: SelectScreen kinase selectivity profiling, AKT1; assay type: biochemical; conditions: read-out: % inhibition @ 10 µM, AKT1; 10 µM fixed concentration
Method: (§2) Off-target kinase activity was performed using the SelectScreen kinase profiling service against either mini 50 kinase or full 450 kinase panels using the Z’lyte and Adapta kinase activity platforms (performed by Thermofisher).

AKT2 = biological target: T2, AKT2 (Homo sapiens, UniProt P31751); assay: SelectScreen kinase selectivity profiling, AKT2; assay type: biochemical; conditions: read-out: % inhibition @ 10 µM, AKT2; 10 µM fixed concentration
T2 construct: purchased Signal Chem
Method: as §2

AKT3 = biological target: T3, AKT3 (Homo sapiens, UniProt Q9Y243); assay: SelectScreen kinase selectivity profiling, AKT3; assay type: biochemical; conditions: read-out: % inhibition @ 10 µM, AKT3; 10 µM fixed concentration
T3 construct: purchased Signal Chem
Method: as §2

[4] = system: panel of over 450 kinases; assay: SelectScreen kinase selectivity profiling, full panel; assay type: biochemical
Method: as §2

normal cell lines = assay: In vitro proliferation assay (CellTiter-Glo), normal cell lines; assay type: cell-based; conditions: normal cell lines, 72 h; read-out: anti-proliferative IC50, normal cells
Method: MCF-7, T47D, NCI-H460, HCT116, LNCaP, A431, PC3, PANC-1, A549, HT29M, SKOV-3, Du145, HMEC-1, Hs888Lu, Hela, MDA-MB-231 and SW480 cells were obtained from American Type Culture Collection (ATCC). A2780, PNT2, U251MG, HFFF2 and Fr2 cells were obtained from Public Health England European Collection of Authenticated Cell Cultures (Phe ECACC). InMyoFib and NHLF cells were acquired from Lonza. Cells were then incubated with increasing concentration of inhibitor (1 nM to 100 µM) for 72 h at 37 °C. Cell viability was determined using the CellTiter-Glo Luminescent Cell Viability Assay (Promega). IC50 values were derived as previously stated.

[5] = system: pAKT (Ser473) in MCF-7 cells; assay: phospho-AKT (S473) ELISA in MCF-7 cells; assay type: cell-based; conditions: Homo sapiens, MCF7, 24h treatment, read-out: EC50 inhibition of phosphorylation of AKT
Method: Cells were then washed with PBS and lysed. The subsequent supernatant was assayed using a GSK3β (pS9) (Invitrogen, Life Technologies) ELISA. Phospho-AKT levels were detected using the phospho-AKT (S473) immunoassay (R&D Systems) as per manufacturer’s protocol. Percentage inhibition of phosphorylation status was calculated by comparing phospho-AKT levels to total AKT levels with each treatment and IC50 values derived using non-linear regression on GraphPad Prism.

MCF-7 cells [6] = assay: Clonogenic cell survival assay; assay type: cell-based; conditions: Homo sapiens, MCF7; MCF-7, concentration range 0.001–10 µM
MCF-7 cells [7] = assay: Cell cycle flow cytometry; assay type: cell-based
Method: MCF-7 breast cancer cells were treated with increasing concentrations of ALM301 (0.1–100 µM) for 72 h. Post treatment, media containing detached cells was collected for each sample and the remaining adherent cells detached using 0.1% EDTA in PBS. Resulting cell suspensions were incorporated with associated media, centrifuged to form a pellet, washed with 1% FCS in PBS and fixed using ice-cold ethanol. Samples were stored at 4 °C for 24 h before staining with propidium iodide (10 µg/mL) (Sigma) containing 2.5 mg/mL RNase A (Qiagen) for 30 min at 37 °C and stored overnight at 4 °C before analysis. A minimum of 10,000 cells per sample were analysed for DNA content using a FACSCalibur flow cytometer and CellQuest Pro software (Becton Dickinson).

T1 sequence (P31749 whole entry): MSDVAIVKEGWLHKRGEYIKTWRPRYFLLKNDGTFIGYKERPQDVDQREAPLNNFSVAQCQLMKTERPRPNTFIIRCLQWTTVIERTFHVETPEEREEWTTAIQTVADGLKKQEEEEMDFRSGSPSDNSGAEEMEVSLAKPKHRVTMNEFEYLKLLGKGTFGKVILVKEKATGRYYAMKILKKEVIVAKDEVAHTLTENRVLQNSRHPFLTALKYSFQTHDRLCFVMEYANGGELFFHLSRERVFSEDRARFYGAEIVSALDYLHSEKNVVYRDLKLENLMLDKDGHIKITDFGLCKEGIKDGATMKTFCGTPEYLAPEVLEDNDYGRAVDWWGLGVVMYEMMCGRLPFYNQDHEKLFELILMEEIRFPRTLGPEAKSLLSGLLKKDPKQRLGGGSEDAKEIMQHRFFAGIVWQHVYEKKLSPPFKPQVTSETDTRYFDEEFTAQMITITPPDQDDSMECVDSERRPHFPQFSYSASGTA
T3 sequence (Q9Y243 whole entry): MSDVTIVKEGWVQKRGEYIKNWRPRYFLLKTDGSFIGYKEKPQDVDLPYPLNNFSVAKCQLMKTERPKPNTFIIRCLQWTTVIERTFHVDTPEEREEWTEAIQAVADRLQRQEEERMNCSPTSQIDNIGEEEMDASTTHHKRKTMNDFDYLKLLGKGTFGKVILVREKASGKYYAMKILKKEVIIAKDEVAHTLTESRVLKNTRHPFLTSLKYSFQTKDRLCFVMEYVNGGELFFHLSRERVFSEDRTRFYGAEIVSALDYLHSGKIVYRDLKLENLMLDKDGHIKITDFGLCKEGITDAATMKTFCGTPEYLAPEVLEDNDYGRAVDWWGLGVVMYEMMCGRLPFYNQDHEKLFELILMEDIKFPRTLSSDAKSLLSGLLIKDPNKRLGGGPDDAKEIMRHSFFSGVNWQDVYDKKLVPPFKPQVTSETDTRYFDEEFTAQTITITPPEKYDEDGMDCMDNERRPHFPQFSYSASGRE
T2 sequence (P31751 whole entry): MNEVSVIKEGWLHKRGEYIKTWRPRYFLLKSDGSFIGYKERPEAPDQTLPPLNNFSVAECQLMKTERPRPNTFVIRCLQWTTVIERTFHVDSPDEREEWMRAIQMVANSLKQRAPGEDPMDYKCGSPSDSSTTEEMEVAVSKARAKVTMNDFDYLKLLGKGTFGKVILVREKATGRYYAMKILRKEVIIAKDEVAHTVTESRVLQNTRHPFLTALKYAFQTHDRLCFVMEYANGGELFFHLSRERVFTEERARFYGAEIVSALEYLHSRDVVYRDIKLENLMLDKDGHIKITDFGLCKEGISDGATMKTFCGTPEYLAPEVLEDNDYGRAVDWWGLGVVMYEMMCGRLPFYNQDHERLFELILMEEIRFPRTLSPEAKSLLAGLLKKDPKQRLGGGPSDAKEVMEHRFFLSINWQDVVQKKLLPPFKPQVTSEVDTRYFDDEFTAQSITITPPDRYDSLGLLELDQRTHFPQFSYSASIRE
Sequence of CYP 1A2 (P05177 whole entry): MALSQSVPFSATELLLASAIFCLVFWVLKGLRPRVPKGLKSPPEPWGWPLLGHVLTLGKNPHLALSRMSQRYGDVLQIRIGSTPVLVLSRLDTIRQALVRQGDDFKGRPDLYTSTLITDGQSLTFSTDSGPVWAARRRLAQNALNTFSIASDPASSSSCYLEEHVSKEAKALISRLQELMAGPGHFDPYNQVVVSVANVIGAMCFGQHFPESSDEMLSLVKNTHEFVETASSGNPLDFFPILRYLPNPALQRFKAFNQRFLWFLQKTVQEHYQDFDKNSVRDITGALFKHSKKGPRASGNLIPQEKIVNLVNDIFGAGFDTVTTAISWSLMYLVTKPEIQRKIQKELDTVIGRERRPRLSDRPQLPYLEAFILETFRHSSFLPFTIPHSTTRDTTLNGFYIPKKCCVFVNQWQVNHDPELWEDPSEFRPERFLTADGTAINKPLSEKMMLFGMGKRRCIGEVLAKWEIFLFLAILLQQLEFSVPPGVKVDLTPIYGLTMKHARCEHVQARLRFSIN
Sequence of CYP 2C9 (P11712 whole entry): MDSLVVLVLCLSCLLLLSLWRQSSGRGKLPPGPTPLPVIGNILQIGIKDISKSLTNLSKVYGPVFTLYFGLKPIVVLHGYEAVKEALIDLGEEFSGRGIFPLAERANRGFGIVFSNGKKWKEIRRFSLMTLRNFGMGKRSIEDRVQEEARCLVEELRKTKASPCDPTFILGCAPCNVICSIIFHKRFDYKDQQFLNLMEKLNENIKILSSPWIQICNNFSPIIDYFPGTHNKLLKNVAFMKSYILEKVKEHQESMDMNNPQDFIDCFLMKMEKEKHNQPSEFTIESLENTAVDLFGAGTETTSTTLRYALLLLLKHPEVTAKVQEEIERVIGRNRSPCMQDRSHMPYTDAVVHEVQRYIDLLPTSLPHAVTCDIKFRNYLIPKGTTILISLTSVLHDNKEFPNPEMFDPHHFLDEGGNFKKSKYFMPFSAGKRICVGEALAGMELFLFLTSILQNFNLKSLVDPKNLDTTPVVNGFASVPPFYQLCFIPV

Which IC50 (AKT1 [1]; ATP concentration 150 µM, read-out: IC50 vs. AKT1) does the source give for `CCN1C(=O)COc2nc(-c3ccc([C@]4(N)C[C@@H](O)C4)cc3)c(-c3ccccc3)cc21` [ALM301, 6-(4-((1S,3S)-1-amino-3-hydroxycyclobutyl)phenyl)-1-ethyl-7-phenyl-1H-pyrido[2,3-b][1,4]oxazin-2(3H)-one] here?
The IC50 was 121 nM.

And the IC50 (AKT1 [1]; ATP concentration 500 µM, read-out: IC50 vs. AKT1)?
Its IC50 is 157 nM.

What about the IC50 (AKT1 [1]; ATP concentration 1000 µM, read-out: IC50 vs. AKT1) of the same compound?
The IC50 was 110 nM.

And the IC50 (AKT1 [1]; full length AKT1, read-out: IC50 full length AKT1)?
Its IC50 is 125 nM.

What about the IC50 (AKT1 [1]; read-out: AKT IC50, AKT1) of the same compound?
Its IC50 is 130 nM.

What about the “inhibition of truncated AKT1 lacking PH domain” value (∆AKT1) of the same compound?
Its value is “not inhibited”.

What about the “inhibition of truncated AKT3 lacking PH domain” value (∆AKT3) of the same compound?
The value was “not inhibited”.

And the microsomal CLint at 1 µM [2]?
The microsomal CLint at 1 µM was 3.7 µL/min/mg.

And the IC50 (CYP 1A2)?
The IC50 was over 25000 nM.

What about the IC50 (CYP 2C9) of the same compound?
The IC50 was over 25000 nM.

And the inhibition at 10 µM (AKT1 [3])?
The inhibition at 10 µM was 95%.

What about the inhibition at 10 µM (AKT2) of the same compound?
The inhibition at 10 µM was 89%.

What about the inhibition at 10 µM (AKT3) of the same compound?
Its inhibition at 10 µM is 72%.

And the “inhibition versus the additional 21 PH domain containing kinases” value ([4]; 21 PH domain containing kinases assayed)?
Its value is “did not demonstrate any inhibition”.

What about the “selectivity against a panel of over 450 kinases” value ([4]; fixed concentration of 10 µM) of the same compound?
Its value is “highly selective”.

And the IC50 (normal cell lines)?
The IC50 was over 20000 nM.

And the EC50 [5]?
Its EC50 is 470 nM.

And the IC50 (MCF-7 cells [6])?
The IC50 was 100 nM.

And the “sub-G0 population (cell-cycle analysis)” value (MCF-7 cells [7]; MCF-7, 0.1–100 µM, 72 h)?
Its value is “increase of sub-G0 population in a concentration dependent manner”.

And the “increase in sub-G0 population compared to ALM301 alone” value (MCF-7 cells [7]; MCF-7, ALM301 in combination with tamoxifen)?
Its value is 4.5 ×.
